Experimental data: the NIST ThermoML archive (doi:10.1016/j.fluid.2010.10.028)
Numbers after ± are expanded uncertainties.

Assay: xn = mol fraction of the nth substance listed
Details: Liquid, Vibrating tube method

CC(C)=O [acetone] + CCCCCCC
Details | mass density [kg/m3]
407.24 K, 19810 kPa, x1 = 0.7024 | 645.07 ± 1.3
407.24 K, 34830 kPa, x1 = 0.7024 | 668.11 ± 1.3
407.24 K, 39830 kPa, x1 = 0.7024 | 674.52 ± 1.4
407.24 K, 44820 kPa, x1 = 0.7024 | 680.48 ± 1.4
407.24 K, 49810 kPa, x1 = 0.7024 | 686.06 ± 1.4
407.24 K, 54890 kPa, x1 = 0.7024 | 691.39 ± 1.4
407.24 K, 59890 kPa, x1 = 0.7024 | 696.35 ± 1.4
407.24 K, 64860 kPa, x1 = 0.7024 | 701.02 ± 1.5
407.24 K, 69850 kPa, x1 = 0.7024 | 705.48 ± 1.5
407.24 K, 74830 kPa, x1 = 0.7024 | 709.73 ± 1.5
407.24 K, 79820 kPa, x1 = 0.7024 | 713.81 ± 1.5
407.24 K, 84800 kPa, x1 = 0.7024 | 717.74 ± 1.6
407.24 K, 94760 kPa, x1 = 0.7024 | 725.11 ± 1.6
407.24 K, 99830 kPa, x1 = 0.7024 | 728.64 ± 1.6
407.24 K, 119800 kPa, x1 = 0.7024 | 741.56 ± 1.7
407.25 K, 89790 kPa, x1 = 0.7024 | 721.47 ± 1.6
407.25 K, 104820 kPa, x1 = 0.7024 | 732.04 ± 1.6
407.25 K, 109820 kPa, x1 = 0.7024 | 735.31 ± 1.7
407.25 K, 114820 kPa, x1 = 0.7024 | 738.47 ± 1.7
407.25 K, 124810 kPa, x1 = 0.7024 | 744.56 ± 1.7
407.25 K, 129820 kPa, x1 = 0.7024 | 747.45 ± 1.8
417.16 K, 1870 kPa, x1 = 0.611 | 581.34 ± 1.2
417.16 K, 4870 kPa, x1 = 0.611 | 591.69 ± 1.2
417.16 K, 9860 kPa, x1 = 0.611 | 605.85 ± 1.2
417.16 K, 14870 kPa, x1 = 0.611 | 617.52 ± 1.3
417.16 K, 19870 kPa, x1 = 0.611 | 627.57 ± 1.3
417.16 K, 29860 kPa, x1 = 0.611 | 644.4 ± 1.3
417.16 K, 34860 kPa, x1 = 0.611 | 651.63 ± 1.3
417.16 K, 44870 kPa, x1 = 0.611 | 664.46 ± 1.4
417.16 K, 49860 kPa, x1 = 0.611 | 670.17 ± 1.4
417.16 K, 54850 kPa, x1 = 0.611 | 675.54 ± 1.4
417.16 K, 59830 kPa, x1 = 0.611 | 680.59 ± 1.5
417.16 K, 64940 kPa, x1 = 0.611 | 685.5 ± 1.5
417.16 K, 69910 kPa, x1 = 0.611 | 690.02 ± 1.5
417.16 K, 74900 kPa, x1 = 0.611 | 694.35 ± 1.5
417.16 K, 79880 kPa, x1 = 0.611 | 698.49 ± 1.6
417.16 K, 84870 kPa, x1 = 0.611 | 702.46 ± 1.6
417.16 K, 89850 kPa, x1 = 0.611 | 706.26 ± 1.6
417.16 K, 94840 kPa, x1 = 0.611 | 709.93 ± 1.6
417.16 K, 99820 kPa, x1 = 0.611 | 713.43 ± 1.7
417.16 K, 119850 kPa, x1 = 0.611 | 726.48 ± 1.8
417.17 K, 1870 kPa, x1 = 0.492 | 575.55 ± 1.2
417.17 K, 4860 kPa, x1 = 0.492 | 585.56 ± 1.2
417.17 K, 9850 kPa, x1 = 0.492 | 599.32 ± 1.2
417.17 K, 24840 kPa, x1 = 0.611 | 636.42 ± 1.3
417.17 K, 39880 kPa, x1 = 0.611 | 658.3 ± 1.4
417.17 K, 44850 kPa, x1 = 0.492 | 656.44 ± 1.4
417.17 K, 49850 kPa, x1 = 0.492 | 662.04 ± 1.4
417.17 K, 54840 kPa, x1 = 0.492 | 667.29 ± 1.4
417.17 K, 59840 kPa, x1 = 0.492 | 672.26 ± 1.5
417.17 K, 104790 kPa, x1 = 0.611 | 716.82 ± 1.7
417.17 K, 104800 kPa, x1 = 0.492 | 707.7 ± 1.7
417.17 K, 109770 kPa, x1 = 0.492 | 710.89 ± 1.7
417.17 K, 109780 kPa, x1 = 0.611 | 720.13 ± 1.7
417.17 K, 114870 kPa, x1 = 0.611 | 723.4 ± 1.7
417.17 K, 124850 kPa, x1 = 0.611 | 729.46 ± 1.8
417.17 K, 129850 kPa, x1 = 0.611 | 732.41 ± 1.8
417.18 K, 1840 kPa, x1 = 0.801 | 597.33 ± 1.2
417.18 K, 4870 kPa, x1 = 0.801 | 607.96 ± 1.2
417.18 K, 14870 kPa, x1 = 0.492 | 610.71 ± 1.3
417.18 K, 19870 kPa, x1 = 0.492 | 620.5 ± 1.3
417.18 K, 24830 kPa, x1 = 0.492 | 629.07 ± 1.3
417.18 K, 29860 kPa, x1 = 0.492 | 636.88 ± 1.3
417.18 K, 34860 kPa, x1 = 0.492 | 643.95 ± 1.3
417.18 K, 39860 kPa, x1 = 0.492 | 650.43 ± 1.4
417.18 K, 64820 kPa, x1 = 0.492 | 676.9 ± 1.5
417.18 K, 69910 kPa, x1 = 0.492 | 681.45 ± 1.5
417.18 K, 74890 kPa, x1 = 0.492 | 685.69 ± 1.6
417.18 K, 79880 kPa, x1 = 0.492 | 689.75 ± 1.6
417.18 K, 84870 kPa, x1 = 0.492 | 693.62 ± 1.6
417.18 K, 89860 kPa, x1 = 0.492 | 697.34 ± 1.6
417.18 K, 94830 kPa, x1 = 0.492 | 700.9 ± 1.7
417.18 K, 99820 kPa, x1 = 0.492 | 704.36 ± 1.7
417.18 K, 114850 kPa, x1 = 0.492 | 714.07 ± 1.8
417.18 K, 119830 kPa, x1 = 0.492 | 717.08 ± 1.8
417.18 K, 124850 kPa, x1 = 0.492 | 720.01 ± 1.8
417.18 K, 129840 kPa, x1 = 0.492 | 722.86 ± 1.9
417.19 K, 2070 kPa, x1 = 0.4 | 611.4 ± 1.2
417.19 K, 2070 kPa, x1 = 0.8992 | 611.4 ± 1.2
417.19 K, 5030 kPa, x1 = 0.4 | 621.55 ± 1.2
417.19 K, 5030 kPa, x1 = 0.8992 | 621.55 ± 1.2
417.19 K, 9870 kPa, x1 = 0.801 | 622.44 ± 1.2
417.19 K, 10010 kPa, x1 = 0.4 | 635.78 ± 1.2
417.19 K, 10010 kPa, x1 = 0.8992 | 635.78 ± 1.2
417.19 K, 14860 kPa, x1 = 0.801 | 634.41 ± 1.2
417.19 K, 15000 kPa, x1 = 0.4 | 647.66 ± 1.3
417.19 K, 15000 kPa, x1 = 0.8992 | 647.66 ± 1.2
417.19 K, 19860 kPa, x1 = 0.801 | 644.76 ± 1.3
417.19 K, 19970 kPa, x1 = 0.4 | 657.99 ± 1.3
417.19 K, 19970 kPa, x1 = 0.8992 | 657.99 ± 1.3
417.19 K, 24870 kPa, x1 = 0.801 | 653.93 ± 1.3
